Assay [1] has as its target T1, Biotin tagged HIF-2α protein containing PAS-B domain (240-350) (Homo sapiens, UniProt Q99814).
T1 construct: Biotin tagged HIF-2α protein containing PAS-B domain (240-350) was prepared and purified in-house; made in house
In words: HIF-2α Scintillation Proximity Assay (SPA) binding assay. To be noted: 50 nM HIF-2α protein, 25 nM 3H-tracer, 2% DMSO. On the procedure: HIF-2α Scintillation Proximity Assay (SPA) Binding Assay:
Biotin tagged HIF-2α protein containing PAS-B domain (240-350) was prepared and purified in-house.
Compounds solubilized in DMSO were dispensed into a white 384-well polystyrene non-binding flat clear bottom plate (Greiner Bio-One, Cat #781903) using an HP D300 dispenser. Ten microliters of biotinylated HIF-2α protein in buffer (25 mM Tris-HCl, pH 7.4, 150 mM NaCl, 0.15% BSA and 0.001% Tween 20) was added to the compound wells and allowed to incubate for 1 hour at room temperature. Ten microliters of SPA bead mix were added to the wells and incubated for an additional 45 minutes, followed by 10 ul of ^3H-tracer solution. Final assay conditions comprised 50 nM HIF-2α protein, 25 nM radiolabeled tracer and 3 ug beads per well with compounds in 2% DMSO. The plate was read using a MicroBeta Microplate Counter (PerkinElmer) for luminescence detection. The IC50 values of the test compounds were determined from compound dose response curves fitted using a standard four parameter fit equation and are reported in Table 2.

The target of assay [2] is T2, HIF-2α (Homo sapiens, UniProt Q99814). In words: HIF-2α Luciferase Reporter Assay (serum free) in HIF-Luc-786-0 cells. The assay is classed as cell-based. To be noted: Opti-MEM, 786-0 reporter cells, 20 hours incubation. In short, it runs like this:
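786-0 cells stably transduced with HIF luciferase reporter, 20,000 cells/well in serum-free Opti-MEM, compounds (50 uM downward, 1% DMSO) 20 h at 37 °C. ONE-Glo luminescence normalized to DMSO and no-cell controls; IC50 from four-parameter fit.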

Assay [3] addresses T2, HIF-2α. In words: HIF-2α Luciferase Reporter Assay (serum), HRE-luciferase 786-0 cells in 100% human serum. The assay is classed as cell-based. As to conditions: for IC50: 100% human serum, 786-0 reporter cells, overnight incubation, read-out: Serum Potency; for Serum Shift (approximate): ratio of IC50 in 100% serum to IC50 in serum free conditions. An outline of the steps: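 786-0 cells stably expressing an HRE-luciferase reporter were plated and rested 3 h. They were then treated overnight at 37 °C with compound diluted in 100% human serum. Serum was replaced with Opti-MEM, ONE-Glo luminescence was read, and IC50 came from a 4-parameter logistic fit.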

Each structure is given as a SMILES string. Some results are limits rather than exact numbers.

T1 sequence (Q99814 240-350): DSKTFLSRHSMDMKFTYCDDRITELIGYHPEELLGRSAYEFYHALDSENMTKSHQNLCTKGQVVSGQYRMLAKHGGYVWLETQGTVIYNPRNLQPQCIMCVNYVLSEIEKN
T2 sequence (Q99814 whole entry): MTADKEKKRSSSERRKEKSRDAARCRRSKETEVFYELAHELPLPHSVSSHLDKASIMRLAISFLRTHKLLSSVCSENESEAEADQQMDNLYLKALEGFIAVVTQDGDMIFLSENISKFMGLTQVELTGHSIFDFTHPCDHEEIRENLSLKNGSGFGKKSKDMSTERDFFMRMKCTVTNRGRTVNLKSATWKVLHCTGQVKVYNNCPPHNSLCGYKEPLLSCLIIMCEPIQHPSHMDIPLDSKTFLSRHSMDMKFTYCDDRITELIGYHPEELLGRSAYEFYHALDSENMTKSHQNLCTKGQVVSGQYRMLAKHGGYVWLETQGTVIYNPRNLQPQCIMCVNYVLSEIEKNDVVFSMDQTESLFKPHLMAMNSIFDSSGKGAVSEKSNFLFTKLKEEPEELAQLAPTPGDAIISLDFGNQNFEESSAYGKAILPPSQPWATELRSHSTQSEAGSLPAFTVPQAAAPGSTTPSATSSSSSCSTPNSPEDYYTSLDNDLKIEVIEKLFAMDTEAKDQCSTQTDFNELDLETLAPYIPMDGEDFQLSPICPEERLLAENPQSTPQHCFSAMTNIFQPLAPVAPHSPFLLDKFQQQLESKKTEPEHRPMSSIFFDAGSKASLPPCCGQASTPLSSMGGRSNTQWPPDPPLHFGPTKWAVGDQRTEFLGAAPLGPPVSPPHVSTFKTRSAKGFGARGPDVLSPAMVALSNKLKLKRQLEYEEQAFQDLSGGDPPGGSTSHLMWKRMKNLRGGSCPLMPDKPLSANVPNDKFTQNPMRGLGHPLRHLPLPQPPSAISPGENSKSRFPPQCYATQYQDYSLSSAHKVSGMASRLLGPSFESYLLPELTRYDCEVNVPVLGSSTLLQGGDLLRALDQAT

`CS(=O)(=O)CCn1nc(C(F)(F)F)c2c1CCC(F)(F)[C@H]2O` [Example 42, (4S)-5,5-difluoro-1-(2-methylsulfonylethyl)-3-(trifluoromethyl)-6,7-dihydro-4H-indazol-4-ol]: the results for the IC50 in assay [1], in assay [2] and in assay [3] were 0.1 to 1 µM, 0.1 to 1 µM and above 1 µM, respectively. Moreover, in assay [3], the “Serum Shift (approximate)” value turned out to be 6.
For the compound `O[C@H]1c2c(C(F)(F)F)nn(CCCC(F)F)c2CCC1(F)F` [Example 31, (4S)-1-(4,4-difluorobutyl)-5,5-difluoro-3-(trifluoromethyl)-6,7-dihydro-4H-indazol-4-ol], the IC50 in assay [1] is 0.1 to 1 µM; in assay [2] it was 0.1 to 1 µM; in assay [3] it was above 1 µM. Moreover, the “Serum Shift (approximate)” value in assay [3] was 7.
As to `OC(CCn1nc(C(F)(F)F)c2c1CCC(F)(F)[C@H]2O)C(F)(F)F` (stereo partly drawn) [Example 16, (4S)-5,5-difluoro-1-(4,4,4-trifluoro-3-hydroxybutyl)-3-(trifluoromethyl)-6,7-dihydro-4H-indazol-4-ol], the IC50 in assay [1] was 0.1 to 1 µM; in assay [2] it was 0.1 to 1 µM; in assay [3], above 1 µM. Also, the “Serum Shift (approximate)” value in assay [3] is given as 22.
As to `O[C@H]1c2c(C(F)(F)F)nn(CCC(F)(F)F)c2CCC1(F)F` [Example 33, (4S)-5,5-difluoro-3-(trifluoromethyl)-1-(3,3,3-trifluoropropyl)-6,7-dihydro-4H-indazol-4-ol], the IC50 in assay [1] is 0.1 to 1 µM; in assay [2] it was 0.1 to 1 µM; in assay [3], above 1 µM. Also, the “Serum Shift (approximate)” value in assay [3] is 9.
As to `O[C@H]1c2c(C(F)(F)F)nn(CCC3CC(F)(F)C3)c2CCC1(F)F` [Example 44, (4S)-1-[2-(3,3-difluorocyclobutyl)ethyl]-5,5-difluoro-3-(trifluoromethyl)-6,7-dihydro-4H-indazol-4-ol], the IC50 is 0.1 to 1 µM in assay [1], 0.1 to 1 µM in assay [2] and above 1 µM in assay [3]. In addition, in assay [3], the “Serum Shift (approximate)” value is 6.
Regarding `CC(C#N)CCn1nc(C(F)(F)F)c2c1CCC(F)(F)[C@H]2O` (stereo partly drawn) [Example 3, 4-[(4S)-5,5-difluoro-4-hydroxy-3-(trifluoromethyl)-6,7-dihydro-4H-indazol-1-yl]-2-methylbutanenitrile], the IC50 in assay [1], in assay [2] and in assay [3] was 0.1 to 1 µM throughout. The “Serum Shift (approximate)” value in assay [3] is on record as 1.
Take `O[C@H]1c2c(C(F)(F)F)nn(CCC3(C(F)(F)F)CC3)c2CCC1(F)F` [Example 5, (4S)-5,5-difluoro-3-(trifluoromethyl)-1-[2-[1-(trifluoromethyl)cyclopropyl]ethyl]-6,7-dihydro-4H-indazol-4-ol]: the IC50 in assay [1] was 0.1 to 1 µM; in assay [2], 0.1 to 1 µM; in assay [3], above 1 µM. The “Serum Shift (approximate)” value in assay [3] was found to be 18.
`CC(F)(F)CCn1nc(C(F)(F)F)c2c1CCC(F)(F)[C@H]2O` [Example 32, (4S)-1-(3,3-difluorobutyl)-5,5-difluoro-3-(trifluoromethyl)-6,7-dihydro-4H-indazol-4-ol]: the results for the IC50 in assay [1], in assay [2] and in assay [3] were 0.1 to 1 µM, below 0.1 µM and 0.1 to 1 µM, respectively. Besides, the “Serum Shift (approximate)” value in assay [3] turned out to be 10.
With `O[C@H]1c2c(C(F)(F)F)nn(CC3CC(F)(F)C3)c2CCC1(F)F` [Example 2, (4S)-1-[(3,3-difluorocyclobutyl)methyl]-5,5-difluoro-3-(trifluoromethyl)-6,7-dihydro-4H-indazol-4-ol], the figures for the IC50 in assay [1], in assay [2] and in assay [3] were 0.1 to 1 µM, 0.1 to 1 µM and above 1 µM, respectively. The “Serum Shift (approximate)” value in assay [3] stood at 13.
`O[C@H]1c2c(C(F)(F)F)nn(CC3CC3(F)F)c2CCC1(F)F` (single isomer, unassigned) [23/24 DIAST-2]: the figures for the IC50 in assay [1], in assay [2] and in assay [3] were 0.1 to 1 µM, 0.1 to 1 µM and above 1 µM, respectively. Further, the “Serum Shift (approximate)” value in assay [3] is recorded as 10.
Turning to `O=S1(=O)CC(Cn2nc(C(F)(F)F)c3c2CCC(F)(F)[C@H]3O)C1` [Example 46, (4S)-1-[(1,1-dioxothietan-3-yl)methyl]-5,5-difluoro-3-(trifluoromethyl)-6,7-dihydro-4H-indazol-4-ol], the IC50 in assay [1], in assay [2] and in assay [3] was 0.1 to 1 µM throughout. In addition, in assay [3], the “Serum Shift (approximate)” value turned out to be 2.
Regarding `O[C@H]1c2c(C(F)(F)F)nn(CCC3CC3)c2CCC1(F)F` [Example 22, (4S)-1-(2-cyclopropylethyl)-5,5-difluoro-3-(trifluoromethyl)-4,5,6,7-tetrahydro-1H-indazol-4-ol], the IC50 was 0.1 to 1 µM in assay [1], 0.1 to 1 µM in assay [2] and above 1 µM in assay [3]. Moreover, in assay [3], the “Serum Shift (approximate)” value was found to be 10.

The values are drawn from patent US12071411B2, “Inhibitors of HIF-2α and methods of use thereof” (ARCUS BIOSCIENCES, INC., priority 2021, dated 2024).
